Experiments:
SIK1 = SIK1 (Homo sapiens (Human), UniProt P57059); experiment: Percent activity against SIK1 at 1 μM; assay type: biochemical; conditions: for SIK1 % ACTIVITY: compound at 1 μM, approximate Km for ATP
SIK2 = SIK2 (Homo sapiens (Human), UniProt Q9H0K1); experiment: Percent activity against SIK2 at 1 μM; assay type: biochemical; conditions: for SIK2 % ACTIVITY: compound at 1 μM, approximate Km for ATP
Viability loss (Table 4) = assay type: cell-based
[1] = qAC50 biological assay (Table 4); conditions: for Data Mode: curve direction of qAC50 data
SIK3 = SIK3 (Homo sapiens (Human), UniProt Q9Y2K2); experiment: Percent activity against SIK3 at 1 μM; assay type: biochemical; conditions: for SIK3 % ACTIVITY: compound at 1 μM, approximate Km for ATP
SIK3, sequence (Q9Y2K2 whole entry): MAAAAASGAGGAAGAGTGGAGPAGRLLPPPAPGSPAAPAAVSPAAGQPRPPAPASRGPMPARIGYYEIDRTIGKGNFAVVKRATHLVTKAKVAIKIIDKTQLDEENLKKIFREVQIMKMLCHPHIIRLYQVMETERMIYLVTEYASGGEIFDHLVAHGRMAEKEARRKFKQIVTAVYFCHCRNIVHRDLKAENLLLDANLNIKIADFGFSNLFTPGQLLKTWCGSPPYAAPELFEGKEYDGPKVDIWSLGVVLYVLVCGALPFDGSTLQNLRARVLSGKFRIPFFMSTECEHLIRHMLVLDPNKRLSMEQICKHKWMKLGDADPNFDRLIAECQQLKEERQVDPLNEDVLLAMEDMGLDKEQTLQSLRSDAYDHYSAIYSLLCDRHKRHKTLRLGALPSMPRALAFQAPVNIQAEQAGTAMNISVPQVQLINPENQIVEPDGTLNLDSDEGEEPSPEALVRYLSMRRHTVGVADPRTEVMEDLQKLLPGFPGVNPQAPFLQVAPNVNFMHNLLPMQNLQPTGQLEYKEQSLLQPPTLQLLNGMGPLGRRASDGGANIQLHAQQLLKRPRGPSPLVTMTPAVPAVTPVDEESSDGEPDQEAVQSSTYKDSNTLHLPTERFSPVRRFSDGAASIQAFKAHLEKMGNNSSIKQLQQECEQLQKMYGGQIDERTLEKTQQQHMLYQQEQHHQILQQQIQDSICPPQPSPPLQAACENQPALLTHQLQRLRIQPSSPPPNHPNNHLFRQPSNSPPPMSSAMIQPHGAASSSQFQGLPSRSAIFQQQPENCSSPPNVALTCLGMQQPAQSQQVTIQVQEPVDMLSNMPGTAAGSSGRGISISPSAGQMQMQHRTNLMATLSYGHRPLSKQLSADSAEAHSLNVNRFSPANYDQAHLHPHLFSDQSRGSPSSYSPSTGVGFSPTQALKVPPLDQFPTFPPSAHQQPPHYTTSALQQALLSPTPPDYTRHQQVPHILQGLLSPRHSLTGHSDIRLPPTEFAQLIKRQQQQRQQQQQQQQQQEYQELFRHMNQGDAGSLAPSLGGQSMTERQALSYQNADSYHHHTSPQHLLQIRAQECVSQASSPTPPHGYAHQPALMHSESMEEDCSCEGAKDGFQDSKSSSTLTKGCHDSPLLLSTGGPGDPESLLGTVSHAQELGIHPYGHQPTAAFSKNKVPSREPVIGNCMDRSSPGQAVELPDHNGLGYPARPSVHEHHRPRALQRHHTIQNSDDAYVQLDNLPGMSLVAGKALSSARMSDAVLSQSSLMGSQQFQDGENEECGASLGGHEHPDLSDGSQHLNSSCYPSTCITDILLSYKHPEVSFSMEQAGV

[2] = biological target: full length His6-MBP-tagged hSIK2 (Homo sapiens (Human), UniProt Q9H0K1); experiment: SIK2 kinase activity assay (Caliper-based mobility shift); assay type: biochemical; conditions: 4 nM hSIK2, 30 μM ATP, 1 hr, rt
full length His6-MBP-tagged hSIK2, sequence (Q9H0K1 whole entry): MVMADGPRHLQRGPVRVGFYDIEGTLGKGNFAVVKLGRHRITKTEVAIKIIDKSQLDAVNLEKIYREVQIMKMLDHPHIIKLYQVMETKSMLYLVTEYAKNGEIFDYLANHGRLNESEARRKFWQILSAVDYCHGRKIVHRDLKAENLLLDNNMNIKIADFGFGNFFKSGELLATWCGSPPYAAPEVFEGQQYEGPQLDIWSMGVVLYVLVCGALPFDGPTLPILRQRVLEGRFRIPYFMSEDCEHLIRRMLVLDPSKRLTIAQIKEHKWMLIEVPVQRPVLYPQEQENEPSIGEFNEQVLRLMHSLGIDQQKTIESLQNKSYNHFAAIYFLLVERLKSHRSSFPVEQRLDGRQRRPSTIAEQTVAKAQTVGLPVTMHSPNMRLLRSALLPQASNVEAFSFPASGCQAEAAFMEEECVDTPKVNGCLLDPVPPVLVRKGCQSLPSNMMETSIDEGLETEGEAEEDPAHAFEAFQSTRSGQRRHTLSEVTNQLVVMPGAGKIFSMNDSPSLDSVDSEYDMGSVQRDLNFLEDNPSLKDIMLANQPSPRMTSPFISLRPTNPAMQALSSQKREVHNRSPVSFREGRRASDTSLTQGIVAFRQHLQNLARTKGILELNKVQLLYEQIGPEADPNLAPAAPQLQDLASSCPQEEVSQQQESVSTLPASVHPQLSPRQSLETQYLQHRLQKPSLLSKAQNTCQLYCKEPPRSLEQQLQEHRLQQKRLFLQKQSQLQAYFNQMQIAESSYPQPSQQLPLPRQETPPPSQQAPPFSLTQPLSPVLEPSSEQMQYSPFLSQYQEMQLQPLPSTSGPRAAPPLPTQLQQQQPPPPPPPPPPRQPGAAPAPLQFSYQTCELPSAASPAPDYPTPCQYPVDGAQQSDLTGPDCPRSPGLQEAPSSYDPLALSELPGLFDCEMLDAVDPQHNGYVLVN
Procedure: Reactions were quenched by adding 20 mM EDTA (pH 8) after 1 hr, and percentage of substrate conversion was measured by LabChip EZ Reader II (PerkinElmer).

SIK2, sequence (Q9H0K1 whole entry): as above
SIK1, sequence (P57059 whole entry): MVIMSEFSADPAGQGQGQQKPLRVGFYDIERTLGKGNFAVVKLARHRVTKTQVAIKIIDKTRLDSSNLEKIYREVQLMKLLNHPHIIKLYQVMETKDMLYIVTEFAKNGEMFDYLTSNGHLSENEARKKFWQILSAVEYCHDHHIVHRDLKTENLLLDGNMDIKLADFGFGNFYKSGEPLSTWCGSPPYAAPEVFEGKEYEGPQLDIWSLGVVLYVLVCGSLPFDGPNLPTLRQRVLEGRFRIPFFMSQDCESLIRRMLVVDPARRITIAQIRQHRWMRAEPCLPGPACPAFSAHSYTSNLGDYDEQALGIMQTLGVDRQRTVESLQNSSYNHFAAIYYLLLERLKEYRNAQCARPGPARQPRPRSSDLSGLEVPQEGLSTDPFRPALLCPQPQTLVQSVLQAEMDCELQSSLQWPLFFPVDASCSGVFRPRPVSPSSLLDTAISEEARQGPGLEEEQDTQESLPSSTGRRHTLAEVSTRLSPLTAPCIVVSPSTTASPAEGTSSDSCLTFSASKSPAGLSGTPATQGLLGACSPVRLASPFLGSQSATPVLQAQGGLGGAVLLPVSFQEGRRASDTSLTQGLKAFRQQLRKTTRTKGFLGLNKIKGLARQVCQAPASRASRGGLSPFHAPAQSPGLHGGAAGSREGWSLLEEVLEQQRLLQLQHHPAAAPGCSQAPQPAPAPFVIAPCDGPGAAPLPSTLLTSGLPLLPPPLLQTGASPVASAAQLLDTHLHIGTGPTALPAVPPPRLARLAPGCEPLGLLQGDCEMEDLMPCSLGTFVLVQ

Row | Structure (SMILES) | SIK1 % ACTIVITY (SIK1) [%] | SIK2 % ACTIVITY (SIK2) [%] | Enzyme activity at 1 μM (%) SIK1 (SIK1) [%] | Enzyme activity at 1 μM (%) SIK2 (SIK2) [%] | Viability loss AC40 (Viability loss (Table 4)) [nM] | Viability loss data mode (Viability loss (Table 4)) | qAC50 [1] [nM] | Data Mode [1] | Enzyme activity at 1 μM (%) SIK3 (SIK3) [%] | SIK3 % ACTIVITY (SIK3) [%] | IC50 [2] [nM]
1 | Cc1ccc(Nc2ncc3c(n2)N(C)C(=O)N(c2cc(NC(=O)c4cccc(C(F)(F)F)c4)ccc2C)C3)cn1 [GNF-7] | 12.0 | 27.4 | – | – | – | – | – | – | – | – | –
2 | Cc1ccc(NC(=O)c2cccc(C(F)(F)F)c2)cc1N1Cc2cnc(Nc3ccc(N4CCN(C)CC4)cc3)nc2N(C)C1=O [HG-11-23-01] | 12.5 | 7.0 | 12.5 | 7 | 106 | decreasing | <50 | decreasing | – | – | –
3 | CN1CCN(c2ccc(Nc3ncc4c(n3)N(C)C(=O)N(c3ccccc3)C4)cc2)CC1 [HG-11-137-01] | 12.9 | 1.4 | 12.9 | 1.4 | 6960 | decreasing | 466 | increasing | 8.6 | 8.6 | –
4 | COc1ccc(N2C(=O)N(c3c(C)cccc3C)Cc3cnc(Nc4ccc(N5CCN(C)CC5)cc4OC)nc32)c(OC)c1 [HG-11-139-01] | 15.3 | 2.1 | 15.3 | 2.1 | 8910 | decreasing | <50 | increasing | 7.5 | 7.5 | –
5 | COc1cc(N2CCN(C)CC2)ccc1Nc1ncc2c(n1)N(C)C(=O)N(c1ccccc1)C2 [HG-11-139-02] | 36.0 | 32.8 | – | – | > 10000 | inactive | >26000 | increasing | – | – | –
6 | COc1ccc(N2C(=O)N(c3c(C)cccc3C)Cc3cnc(Nc4cc(N5CCOCC5)cc(N5CCN(C)CC5)c4)nc32)c(OC)c1 [HG-11-143-01] | 7.9 | 4.3 | 7.9 | 4.3 | – | – | 469 | decreasing | 9.3 | 9.3 | –
7 | COc1ccc(N2C(=O)N(c3c(C)cccc3Cl)Cc3cnc(Nc4ccc(N5CCN(C)CC5)cc4)nc32)nc1 [YKL-05-95] | – | – | – | – | – | – | – | – | – | – | 6 ± 3
8 | COc1ccc(N2C(=O)N(c3c(C)cccc3Cl)Cc3cnc(Nc4ccc(N5CCN(C)CC5)cc4OC)nc32)nc1 [YKL-05-96] | – | – | – | – | – | – | – | – | – | – | 34 ± 14
